Experimental data: US8999987B2, “Dihydropyridophthalazinone inhibitors of poly(ADP-ribose)polymerase (PARP)” (BioMarin Pharmaceutical Inc., priority 2008, dated 2015)

Columns and labels:
[1] = system: MX-1 xenograft model; test: Xenograft combination study with Cisplatin; type: in vivo, mice; settings: MX-1 breast xenograft model; comparable doses of cisplatin or PARP inhibitor alone
Protocol: Female athymic nu/nu mice (8-10 weeks old) were used for all in vivo xenograft studies. Mice were quarantined for at least 1 week before experimental manipulation. Exponentially growing cells or in vivo passaged tumor fragments were implanted subcutaneously at the right flank of nude mice. Tumor-bearing mice were randomized according to tumor size into 6-8 mice/group in each study (average tumor size ˜150 mm^3). Mice were observed daily for survival and tumors were measured twice weekly by caliper in two dimensions and converted to tumor mass using the formula for a prolate ellipsoid (V=0.5 a×b^2), where a and b are the long and short diameters of the tumor, respectively, and assuming unit density (1 mm^3=1 mg).
Combination study: PARP inhibitory compounds described herein in vehicle 10% DMAc/6% Solutal/84% PBS, were either administered orally, once daily for 5 days with Temozolomide (17 mg/kg or 34 mg/kg, p.o., qd×5, 30 min after each dose of compounds) in SW620 xenograft model or dosed orally, once daily for 8 days with 6 mg/kg Cisplatin (once by ip on day 3, 30 min after first dose of PARP inhibitors) in MX-1 xenograft model. Mice were observed and individual tumor was measured for 30 more days after the last dosing of PARP inhibitory compounds.

[2] = system: CAPAN-1 cells; settings: CAPAN-1 cells in DMEM with FCS (20% v/v); cited from earlier work
[3] = system: BRCA2-deficient tumors; settings: cited from earlier work
[4] = system: BRCA2-deficient cell line V-C8; settings: V-C8 compared with the BRCA2 wild type control; cited from earlier work
[5] = target: PARP-1 (Homo sapiens, UniProt P09874); settings: PARP-1 inhibitor; cited from earlier work
Chain of PARP-1 (P09874 whole entry, species assumed): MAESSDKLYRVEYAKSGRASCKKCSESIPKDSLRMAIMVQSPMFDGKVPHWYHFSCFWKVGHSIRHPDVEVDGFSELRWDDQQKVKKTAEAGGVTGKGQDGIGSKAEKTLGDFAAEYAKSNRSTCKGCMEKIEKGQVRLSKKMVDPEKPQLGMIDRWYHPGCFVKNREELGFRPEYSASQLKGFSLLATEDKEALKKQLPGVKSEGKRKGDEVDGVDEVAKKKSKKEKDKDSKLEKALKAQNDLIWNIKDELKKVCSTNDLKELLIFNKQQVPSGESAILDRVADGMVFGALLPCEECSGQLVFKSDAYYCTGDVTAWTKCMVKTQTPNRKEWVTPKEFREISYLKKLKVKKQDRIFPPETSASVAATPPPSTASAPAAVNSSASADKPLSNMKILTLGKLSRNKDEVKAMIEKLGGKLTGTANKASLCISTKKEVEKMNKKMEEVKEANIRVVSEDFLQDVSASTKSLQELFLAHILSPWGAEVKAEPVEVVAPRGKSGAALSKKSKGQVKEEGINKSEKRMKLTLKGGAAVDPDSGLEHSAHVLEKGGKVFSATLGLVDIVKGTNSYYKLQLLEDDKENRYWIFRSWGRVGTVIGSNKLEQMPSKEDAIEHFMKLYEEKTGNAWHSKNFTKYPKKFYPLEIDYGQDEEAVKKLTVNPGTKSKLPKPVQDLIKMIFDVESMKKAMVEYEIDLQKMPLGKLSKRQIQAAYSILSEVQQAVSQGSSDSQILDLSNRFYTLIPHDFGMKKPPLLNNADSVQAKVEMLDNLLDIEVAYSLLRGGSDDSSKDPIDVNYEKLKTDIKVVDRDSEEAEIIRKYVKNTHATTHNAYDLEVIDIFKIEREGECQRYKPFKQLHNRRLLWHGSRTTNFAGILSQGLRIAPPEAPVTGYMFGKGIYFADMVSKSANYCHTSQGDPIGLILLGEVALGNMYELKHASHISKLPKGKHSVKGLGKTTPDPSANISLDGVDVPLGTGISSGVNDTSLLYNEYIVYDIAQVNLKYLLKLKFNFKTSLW

SMILES	tumor inhibition, agent alone [1]	sensitivity in clonogenic survival assay [2]	in vivo efficacy, tumor growth [3]	sensitivity in clonogenic survival assay [4]	Ki [5]
N.N.[Cl][Pt][Cl] [cisplatin]	only small to modest tumor inhibition				
O=C1CCC(=O)N1c1cc(Cc2n[nH]c(=O)c3ccccc23)ccc1F [KU0058684]		showing sensitivity to PARP inhibition	shown in vivo efficacy in blocking the growth of BRCA2-deficient tumors		
Cc1nc2c(O)cccc2c(=O)[nH]1 [NU1025]				exhibited sensitivity	50 nM
CN(C)Cc1ccc(-c2nc3cccc4c3n2CCNC4=O)cc1 [AG14361]				exhibited sensitivity	5 nM
